Converted amounts (≈) assume the structure as drawn. Like-named read-outs stand apart in the source and are kept apart here. One block for each compound: values may come before it.
How the values were obtained:
[1] = Tissue accumulation experiment in tumor-bearing mice; format: in vivo, BALB/cA nude mice; design: content in Tumor / content in Liver / content in Kidney / content in Heart / content in Lung / content in Muscle / content in Brain: unit not given here; conditions: 40 mg/kg for 21 days (crystalline form 1 twice a day, sunitinib once a day); 4 hours after administration on day 22
Protocol: Human colon cancer H-29 cells were implanted into the armpits of BALB/cA nude mice. Seven days after the implantation of H-29 cells, 8 female mice were administered with the crystalline form 1 (twice a day) at 40 mg/kg or sunitinib at 40 mg/kg (once a day). The drug administration was continuous for 21 days. Plasma, tissue and tumor samples were collected for analysis 4 hours after the administration on the 22nd day morning.

[2] = Stability of the crystalline forms (HPLC, XRD, DSC); format: physicochemical; conditions: for HPLC Maximum single impurity %: retention time (min) in brackets; for crystalline form and melting point by XRD and DSC: sealed 80° C. 24 hours, open dish 25° C./60% RH and 40° C./75% RH for 7 days
Protocol: Experimental conditions: the samples were sealed and placed at 80° C. for 24 hours, and then placed in an open dish at 25° C./60% RH (relative humidity) and 40° C./75% RH for 7 days. Detection method: HPLC (only for the starting samples and samples placed at 80° C. for 24 hours), XRD, DSC.
In addition, the long-term stabilities of the crystalline form 1 for 12 months, 24 months, 36 months, and 48 months at 25° C./60% RH were also investigated.

[3] = Dynamic vapor sorption (DVS) / moisture absorption; format: physicochemical
Protocol: (4) Dynamic Water Adsorption (DVS), TA Instruments Q5000 TGA; controlling software: Thermal Advantage; analysis software: Universal Analysis; sample plate: platinum crucible; amount of the sample to be detected: 1-10 mg; protective gas: nitrogen; gas flow fate: 10 mL/min; detection method: equilibration at 25° C., humidity: 0%, isothermal treatment: 90 min, weight change to be detected: from 0% RH to 80% RH;
(§1) The moisture content, solubility and dissolution rate of the crystalline forms 1 and 2 were detected using the methods described above. The results are shown in Table 21, which indicate that the solubility, dissolution, and moisture content (total pharmaceutical properties) of the crystalline form 1 are higher than that of the crystalline form 2. Moreover, the crystalline forms 1 and 2 have the highest solubility in methanol.

[4] = Solubility of crystalline forms 1 and 2 in various media; format: physicochemical
Description: as §1

[5] = Solubility determination in water by HPLC; format: physicochemical; conditions: suspension in water, 25° C.
Protocol: HPLC detection was performed using the crystalline form 1 as a standard, with its concentration of 204.2 μg*mL^−1 and its content set as 100%, and the detection was performed 7 times. The average peak area was 159.691 mAU*min (retention time was 7.4 min).

[6] = Pharmacokinetic experiment, oral administration; format: in vivo, Sprague Dawley rats; conditions: rat, 10 mg/kg, suspension in 0.5% CMC
Protocol: Twelve Sprague Dawley rats with weight of 230-250 g were randomly divided into 2 groups, wherein each group consisted of 3 males and 3 females. Crystalline forms 1 and 2 were separately prepared as suspensions in 0.5% carboxymethylcellulose (CMC). The rats were fasted for 12 hours with free access to water and then orally administered at a dose of 10 mg/kg. Blood samples (0.2-0.3 ml) before and after 15, 30, 60, 120, 240, 360, 480, 720, 1440 minutes of the oral administration were collected in heparin anticoagulation tubes, which were then centrifuged to obtain plasma. The plasma was stored at −20° C., followed by analysis using API 4000 MS in conjunction with a HPLC unit. The pharmacokinetic parameters Cmax and AUC were calculated according to the determined plasma concentrations and summarized in Table 22.

[7] = Thermodynamic stability experiment in solvents at 60° C. (XRD); format: physicochemical; conditions: one day
Protocol: The crystalline form 1, crystalline form 2, crystalline form 3 and crystalline form 7 of the compound of formula I were mixed with acetone, ethyl acetate, methanol, water and tetrahydrofuran respectively, and then kept at 60° C. for one day for the investigation of the thermodynamic stability of each crystalline form. Insoluble solid was recovered by filtration and analyzed by XRD. Analysis conditions: Shimadzu XRD-6000, CuK source (1.54056 A) 40 kV, 30 mA; detection angle: 5-50°, speed: 5°/min.

[8] = Dissolution rate of crystalline forms 1 and 2; format: physicochemical
Description: as §1

[9] = acetone, ethyl acetate, methanol or water, conversion not complete in methanol

- content in Brain [1]: 333.9
- content in Heart [1]: 3,881.2
- content in Kidney [1]: 14,852.0
- content in Liver [1]: 14,816.6
- content in Lung [1]: 15,713.5
- content in Muscle [1]: 1,483.2
- content in Plasma [1]: 261.3
- content in Tumor [1]: 27,137.2
SMILES: CCN(CC)CCNC(=O)c1c(C)[nH]c(/C=C2\C(=O)Nc3ccc(F)cc32)c1C [Sunitinib, reference compound]

- HPLC Purity % ([2]; 0 day (starting sample)): 97.76%
- HPLC Maximum single impurity % ([2]; 0 day (starting sample)): 2.15 (4.73) %
- crystalline form and melting point by XRD and DSC [2]: substantially unchanged
- HPLC Purity % ([2]; sealed, 80° C./24 h): 98.95%
- HPLC Maximum single impurity % ([2]; sealed, 80° C./24 h): 0.96 (4.73) %
- Moisture absorption ([3]; RH 50%): 0.064%
- Moisture absorption ([3]; RH 80%): 0.112%
- Solubility ([4]; 1% Tween 80): 20 µg/mL (≈ 45.5 µM)
- Solubility ([4]; 1% sodium lauryl sulfate): 580 µg/mL (≈ 1320 µM)
- Solubility ([4]; 2% sodium lauryl sulfate): 950 µg/mL (≈ 2160 µM)
- Solubility ([4]; PEG 400, organic solvent or mixture, thermodynamic from solid, PEG 400, read-out: Solubility): 2670 µg/mL (≈ 6080 µM)
- Solubility ([4]; acetonitrile): 270 µg/mL (≈ 614 µM)
- Solubility ([4]; aqueous solution with pH of 1.0-7.5): 0.0048 to 0.04 µg/mL
- Solubility ([4]; ethanol, organic solvent or mixture, thermodynamic from solid, ethanol, read-out: Solubility): 1940 µg/mL (≈ 4410 µM)
- Solubility ([4]; glycerin): 120 µg/mL (≈ 273 µM)
- Solubility ([4]; methanol): 3500 µg/mL (≈ 7960 µM)
- concentration (solubility in water) ([5]; 0.5 hours): 0.19 µg/mL
- concentration (solubility in water) ([5]; 4 hours): 0.26 µg/mL
- AUC(0-t) ([6]; female, Sprague Dawley, plasma, po, female 1, read-out: AUC(0-t)): 4340 ng·h/mL
- Cmax ([6]; female, Sprague Dawley, plasma, po, female 1, read-out: Cmax): 317 ng/mL
- AUC(0-t) ([6]; oral 10 mg/kg, average value): 3320.9 ng·h/mL
- Cmax ([6]; oral 10 mg/kg, average value): 313.8 ng/mL
- AUC(0-t) ([6]; oral 10 mg/kg, female 2): 3899.2 ng·h/mL
- Cmax ([6]; oral 10 mg/kg, female 2): 451.4 ng/mL
- AUC(0-t) ([6]; oral 10 mg/kg, female 3): 7850.6 ng·h/mL
- Cmax ([6]; oral 10 mg/kg, female 3): 614.6 ng/mL
- AUC(0-t) ([6]; oral 10 mg/kg, male 1): 1557.1 ng·h/mL
- Cmax ([6]; oral 10 mg/kg, male 1): 204.4 ng/mL
- AUC(0-t) ([6]; oral 10 mg/kg, male 2): 925.0 ng·h/mL
- Cmax ([6]; oral 10 mg/kg, male 2): 114.7 ng/mL
- AUC(0-t) ([6]; oral 10 mg/kg, male 3): 1349.3 ng·h/mL
- Cmax ([6]; oral 10 mg/kg, male 3): 180.4 ng/mL
- crystalline form recovered (XRD) [7, 9]: converted to crystalline form 2
- crystalline form recovered (XRD) ([7]; tetrahydrofuran (THF)): to crystalline form 3
- Internal dissolution rate [8]: 0.0062 mg/(min · cm^2)
SMILES: Cc1[nH]c(/C=C2\C(=O)Nc3ccc(F)cc32)c(C)c1C(=O)N[C@H]1CCN(C(=O)N(C)C)C1 [crystalline form 2, 5-[5-fluoro-2-oxo-1,2-dihydro-indole-(3Z)-ylidenemethyl]-2,4-dimethyl-1H-pyrrole-3-carboxylic acid ((S)-1-dimethylcarbamoyl-pyrrolidin-3-yl)-amide]

- HPLC Purity % ([2]; 0 day (starting sample)): 99.14%
- HPLC Maximum single impurity % ([2]; 0 day (starting sample)): 0.76 (4.73) %
- crystalline form and melting point by XRD and DSC [2]: substantially unchanged
- HPLC Purity % ([2]; sealed, 80° C./24 h): 98.32%
- HPLC Maximum single impurity % ([2]; sealed, 80° C./24 h): 1.58 (4.73) %
- concentration (solubility in water) ([5]; 0.5 hours): 0.58 µg/mL
- concentration (solubility in water) ([5]; 4 hours): 0.77 µg/mL
- crystalline form recovered (XRD) [7, 9]: converted to crystalline form 2
- crystalline form recovered (XRD) ([7]; tetrahydrofuran (THF)): to crystalline form 3
SMILES: Cc1[nH]c(/C=C2\C(=O)Nc3ccc(F)cc32)c(C)c1C(=O)N[C@H]1CCN(C(=O)N(C)C)C1 [crystalline form 3, 5-[5-fluoro-2-oxo-1,2-dihydro-indole-(3Z)-ylidenemethyl]-2,4-dimethyl-1H-pyrrole-3-carboxylic acid ((S)-1-dimethylcarbamoyl-pyrrolidin-3-yl)-amide]

- HPLC Purity % ([2]; 0 day (starting sample)): 99.86%
- HPLC Maximum single impurity % ([2]; 0 day (starting sample)): 0.05 (8.82) %
- crystalline form and melting point by XRD and DSC [2]: substantially unchanged
- HPLC Purity % ([2]; sealed, 80° C./24 h): 98.80%
- HPLC Maximum single impurity % ([2]; sealed, 80° C./24 h): 1.10 (4.73) %
- concentration (solubility in water) ([5]; 0.5 hours): 1.66 µg/mL
- concentration (solubility in water) ([5]; 4 hours): 0.42 µg/mL
SMILES: Cc1[nH]c(/C=C2\C(=O)Nc3ccc(F)cc32)c(C)c1C(=O)N[C@H]1CCN(C(=O)N(C)C)C1 [crystalline form 5, 5-[5-fluoro-2-oxo-1,2-dihydro-indole-(3Z)-ylidenemethyl]-2,4-dimethyl-1H-pyrrole-3-carboxylic acid ((S)-1-dimethylcarbamoyl-pyrrolidin-3-yl)-amide]

- HPLC Purity % ([2]; 0 day (starting sample)): 99.09%
- HPLC Maximum single impurity % ([2]; 0 day (starting sample)): 0.80 (4.73) %
- crystalline form and melting point by XRD and DSC [2]: substantially unchanged
- HPLC Purity % ([2]; sealed, 80° C./24 h): 99.12%
- HPLC Maximum single impurity % ([2]; sealed, 80° C./24 h): 0.78 (4.73) %
- concentration (solubility in water) ([5]; 0.5 hours): 0.29 µg/mL
- concentration (solubility in water) ([5]; 4 hours): 0.37 µg/mL
SMILES: Cc1[nH]c(/C=C2\C(=O)Nc3ccc(F)cc32)c(C)c1C(=O)N[C@H]1CCN(C(=O)N(C)C)C1 [crystalline form 6, 5-[5-fluoro-2-oxo-1,2-dihydro-indole-(3Z)-ylidenemethyl]-2,4-dimethyl-1H-pyrrole-3-carboxylic acid ((S)-1-dimethylcarbamoyl-pyrrolidin-3-yl)-amide]

- HPLC Purity % ([2]; 0 day (starting sample)): 99.28%
- HPLC Maximum single impurity % ([2]; 0 day (starting sample)): 0.58 (4.73) %
- crystalline form and melting point by XRD and DSC [2]: substantially unchanged
- HPLC Purity % ([2]; sealed, 80° C./24 h): 98.70%
- HPLC Maximum single impurity % ([2]; sealed, 80° C./24 h): 1.19 (4.73) %
- concentration (solubility in water) ([5]; 0.5 hours): 0.52 µg/mL
- concentration (solubility in water) ([5]; 4 hours): 0.61 µg/mL
- crystalline form recovered (XRD) [7, 9]: converted to crystalline form 2
- crystalline form recovered (XRD) ([7]; tetrahydrofuran (THF)): to crystalline form 3
SMILES: Cc1[nH]c(/C=C2\C(=O)Nc3ccc(F)cc32)c(C)c1C(=O)N[C@H]1CCN(C(=O)N(C)C)C1 [crystalline form 7, 5-[5-fluoro-2-oxo-1,2-dihydro-indole-(3Z)-ylidenemethyl]-2,4-dimethyl-1H-pyrrole-3-carboxylic acid ((S)-1-dimethylcarbamoyl-pyrrolidin-3-yl)-amide]

Source: patent US12209080B2, “Polymorphic forms of kinase inhibitor compound, pharmaceutical composition containing same, preparation method therefor and use thereof” (EQUINOX SCIENCES, LLC, priority 2016, dated 2025)
